Reference: patent publication US6369083B1, “2-methoxyimino-2 (pyrinyloxymethyl) phenyl acetamides with polyether derivatives on the pyridine ring” (Dow AgroSciences LLC, priority 1998, dated 2002)

Tests used:
Type in all cases: in vivo
[1] = system: Plasmopara viticola; experiment: Downy Mildew of Grape (PLASVI), 96 hour protectant; conditions: grape vines (cultivar Carignane), sprayed at 100 ppm, inoculated after 96 hours (protectant)
Procedure: Compound Formulation: […] Final treatment volumes were obtained by adding nine volumes 0.05kOO aqueous Tween-20 or Triton X-100, depending upon the pathogen. Downy Mildew of Grape (Plasmogara viticola-[…]) (96 Hour Protectant): Vines (cultivar Carignane) were grown from seed in a soilless peat-based potting mixture (Metromix) until the seedlings were 10-20 cm tall. These plants were then sprayed to run off with the test compound at a rate of 100 ppm. After 96 hours the test plants were inoculated by spraying with an aqueous sporangia suspension of Plasmopara viticola. The plants were then transferred to the greenhouse until disease developed on the untreated control plants. The following table presents the activity of typical compounds of the present invention when evaluated in these experiments. The effectiveness of the test compounds in controlling disease was rated using the following scale: […]

[2] = system: Septoria tritici; experiment: Septoria leaf spot (SEPTTR); conditions: wheat (cultivar Monon), sprayed at 100 ppm, inoculated after 24 hours
Procedure: Compound Formulation: […] Final treatment volumes were obtained by adding nine volumes 0.05kOO aqueous Tween-20 or Triton X-100, depending upon the pathogen. Septoria leaf spot (Septoria tritici-[…]): Wheat (cultivar Monon) was grown from seed in a soilless peat-based potting mixture (Metromix) until the seedlings were 1-2 leaf (BECH 12). These plants were then sprayed to run off with the test compound at a rate of 100 ppm. After 24 hours the test plants were inoculated with an aqueous spore suspension of Septoria tritici. The plants were then transferred to the greenhouse until disease developed on the untreated control plants. The following table presents the activity of typical compounds of the present invention when evaluated in these experiments. The effectiveness of the test compounds in controlling disease was rated using the following scale: […]

[3] = system: Erysiphe graminis; experiment: Powdery Mildew of Wheat (ERYSGT); conditions: wheat (cultivar Monon), inoculated, sprayed at 25 ppm after 48 hours
Procedure: Compound Formulation: […] Final treatment volumes were obtained by adding nine volumes 0.05kOO aqueous Tween-20 or Triton X-100, depending upon the pathogen. Powdery Mildew of Wheat (Erysiphe graminis-[…]): Wheat (cultivar Monon) was grown in a soilless peat-based potting mixture (Metromix) until the seedlings were 1-2 leaf (BBCH 12). These plants were then inoculated with Erysiphe graminis by dusting spores from stock plants onto the test plants. After 48 hours the plants were sprayed to run off with the test compound at a rate of 25 ppm and then kept in the greenhouse until disease developed on the untreated control plants. The following table presents the activity of typical compounds of the present invention when evaluated in these experiments. The effectiveness of the test compounds in controlling disease was rated using the following scale: […]

[4] = system: Leptosphaeria nodorum; experiment: Glume blotch of wheat (LEPTNO); conditions: wheat (cultivar Monon), sprayed at 100 ppm, inoculated after 24 hours
Procedure: Compound Formulation: […] Final treatment volumes were obtained by adding nine volumes 0.05kOO aqueous Tween-20 or Triton X-100, depending upon the pathogen. Glume blotch of wheat (Leptosphaeria nodorum-[…]): Wheat (cultivar Monon) was grown from seed in a soilless peat-based potting mixture (Metromix) until the seedlings were 1-2 leaf (BBCH 12). These plants were then sprayed to run off with the test compound at a rate of 100 ppm. After 24 hours the test plants were inoculated with an aqueous spore suspension of Leptosphaeria nodorum. The plants were then transferred to the greenhouse until disease developed on the untreated control plants. Brown rust (Puccinia recondita-PUCCRT): Wheat (cultivar Monon) was grown from seed in a soilless peat-based potting mixture (Metromix) until the seedlings were 1-2 leaf (BBCH 12). These plants were then sprayed to run off with the test compound at a rate of 100 ppm. After 24 hours the test plants were inoculated with an aqueous spore suspension of Puccinia recondita. The plants were then transferred to the greenhouse until disease developed on the untreated control plants. The following table presents the activity of typical compounds of the present invention when evaluated in these experiments. The effectiveness of the test compounds in controlling disease was rated using the following scale: […]

Molecule | PLASVI control of plant disease [1] | SEPTTR control of plant disease [2] | ERYSGT control of plant disease [3] | LEPTNO control of plant disease [4]
CNC(=O)C(=NOC)c1ccccc1COc1cccc(OCCOC2CCCCC2)n1 [Compound 62] | ++ (++ = 75-100 % control of plant disease) | + (+ = 25-74% control of plant disease) |  | 
CCOCCOc1nc(OCc2ccccc2C(=NOC)C(=O)NC)c(Cl)cc1Cl [Compound 18] | ++ (++ = 75-100 % control of plant disease) |  | + (+ = 25-74% control of plant disease) | ++ (++ = 75-100 % control of plant disease)
CCCOCCOc1cccc(OCc2c(Cl)cccc2C(=NOC)C(=O)NC)n1 [Compound 60] | ++ (++ = 75-100 % control of plant disease) | ++ (++ = 75-100 % control of plant disease) |  | 
Benzeneacetamide, 2-[[[6-(2-(2-ethoxyethoxy)ethoxy) -2-pyridinyl]oxy]methyl]-α-(methoxyimino)-N-methyl- [Compound 21] | ++ (++ = 75-100 % control of plant disease) |  |  | + (+ = 25-74% control of plant disease)
CCOCCOc1cccc(OCc2ccccc2C(=NOC)C(=O)NC)n1 [Compound 17] | ++ (++ = 75-100 % control of plant disease) |  | + (+ = 25-74% control of plant disease) | ++ (++ = 75-100 % control of plant disease)
CCOc1ccccc1Oc1cccc(OCc2ccccc2C(=NOC)C(=O)NC)n1 [Compound 64] | ++ (++ = 75-100 % control of plant disease) | ++ (++ = 75-100 % control of plant disease) |  | 
CCOCCCOc1cccc(OCc2ccccc2C(=NOC)C(=O)NC)n1 [Compound 55] |  |  | + (+ = 25-74% control of plant disease) | + (+ = 25-74% control of plant disease)
CCOc1cccc2nc(Sc3cccc(OCc4ccccc4C(=NOC)C(=O)NC)n3)sc12 [Compound 13] | + (+ = 25-74% control of plant disease) |  | − (− = 0-24% control of plant disease) | + (+ = 25-74% control of plant disease)
CNC(=O)C(=NOC)c1ccccc1COc1cccc(OCCOC(C)C)n1 [Compound 53] | ++ (++ = 75-100 % control of plant disease) |  | ++ (++ = 75-100 % control of plant disease) | − (− = 0-24% control of plant disease)
CNC(=O)C(=NOC)c1ccccc1COc1cccc(OCCOC2CCC2)n1 [Compound 58] | ++ (++ = 75-100 % control of plant disease) | ++ (++ = 75-100 % control of plant disease) |  | 
C=CC(COC)Oc1cccc(OCc2ccccc2C(=NOC)C(=O)NC)n1 (centres unmarked) [Compound 72] |  | − (− = 0-24% control of plant disease) |  | 
CNC(=O)C(=NOC)c1ccccc1COc1cccc(SCCSC(C)(C)C)n1 [Compound 52] | ++ (++ = 75-100 % control of plant disease) |  | ++ (++ = 75-100 % control of plant disease) | + (+ = 25-74% control of plant disease)
CNC(=O)C(=NOC)c1ccccc1COc1cccc(OCCOC(CCC#N)OC)n1 (centres unmarked) [Compound 73] |  | − (− = 0-24% control of plant disease) |  | 
CCOCCOCCOc1nc(OCc2ccccc2C(=NOC)C(=O)NC)c(Cl)cc1Cl [Compound 16] | ++ (++ = 75-100 % control of plant disease) |  | ++ (++ = 75-100 % control of plant disease) | + (+ = 25-74% control of plant disease)
CNC(=O)C(=NOC)c1ccccc1COc1cccc(OCc2ccc(OC)cc2)n1 [Compound 83] |  | ++ (++ = 75-100 % control of plant disease) |  | 
CNC(=O)C(=NOC)c1cccc(Cl)c1COc1cccc(OCCCOC(C)C)n1 [Compound 80] |  | ++ (++ = 75-100 % control of plant disease) |  | 
CCCCCOCCOc1cccc(OCc2ccccc2C(=NOC)C(=O)NC)n1 [Compound 61] | ++ (++ = 75-100 % control of plant disease) | ++ (++ = 75-100 % control of plant disease) |  | 

Molecule | PLASVI control of plant disease [1] | SEPTTR control of plant disease [2] | ERYSGT control of plant disease [3] | LEPTNO control of plant disease [4]
CCOCCCOc1cccc(OCc2c(F)cccc2C(=NOC)C(=O)NC)n1 [Compound 77] |  | ++ (++ = 75-100 % control of plant disease) |  | 
CCOc1ccc(Oc2cccc(OCc3ccccc3C(=NOC)C(=O)NC)n2)cc1 [Compound 68] | ++ (++ = 75-100 % control of plant disease) | + (+ = 25-74% control of plant disease) |  | 
CCCCCCOCCOc1cccc(OCc2ccccc2C(=NOC)C(=O)NC)n1 [Compound 70] | + (+ = 25-74% control of plant disease) | + (+ = 25-74% control of plant disease) |  | 
CCOCCCCOc1cccc(OCc2ccccc2C(=NOC)C(=O)NC)n1 [Compound 65] | ++ (++ = 75-100 % control of plant disease) | ++ (++ = 75-100 % control of plant disease) |  | 
CCOCCOc1nc(OCc2ccccc2C(=NOC)C(=O)NC)ccc1Cl [Compound 24, Benzeneacetamide, 2-[[[5-chloro-6-(2-ethoxyethoxy)-2-pyridinyl]oxy]methyl]-α-(methoxyimino)-N-methyl-] | ++ (++ = 75-100 % control of plant disease) |  | ++ (++ = 75-100 % control of plant disease) | + (+ = 25-74% control of plant disease)
CCCOCCOCCOc1nc(OCc2ccccc2C(=NOC)C(=O)NC)c(Cl)cc1Cl [Compound 19] | + (+ = 25-74% control of plant disease) |  | + (+ = 25-74% control of plant disease) | ++ (++ = 75-100 % control of plant disease)
CNC(=O)C(=NOC)c1ccccc1COc1cccc(Oc2ccccc2OC)n1 [Compound 81] |  | + (+ = 25-74% control of plant disease) |  | 
CCCCCOCCOc1cccc(OCc2c(F)cccc2C(=NOC)C(=O)NC)n1 [Compound 75] |  | ++ (++ = 75-100 % control of plant disease) |  | 
CNC(=O)C(=NOC)c1ccccc1COc1cccc(OCc2ccccc2OC)n1 [Compound 82] |  | ++ (++ = 75-100 % control of plant disease) |  | 
CCOc1ccc(Sc2cccc(OCc3ccccc3C(=NOC)C(=O)NC)n2)cc1 [Compound 85] |  | − (− = 0-24% control of plant disease) |  | 
CCCCC(CC)COCCOc1cccc(OCc2ccccc2C(=NOC)C(=O)NC)n1 (centres unmarked) [Compound 56] | ++ (++ = 75-100 % control of plant disease) | ++ (++ = 75-100 % control of plant disease) |  | 
CNC(=O)C(=NOC)c1ccccc1COc1cccc(OCCCCCOCc2ccccc2)n1 [Compound 66] | ++ (++ = 75-100 % control of plant disease) | ++ (++ = 75-100 % control of plant disease) |  | 
CCOCCCOc1cccc(OCc2c(Cl)cccc2C(=NOC)C(=O)NC)n1 [Compound 78] |  | ++ (++ = 75-100 % control of plant disease) |  | 
CNC(=O)C(=NOC)c1ccccc1COc1cccc(OC(COC)OC)n1 (centres unmarked) [Compound 22] | + (+ = 25-74% control of plant disease) |  | ++ (++ = 75-100 % control of plant disease) | + (+ = 25-74% control of plant disease)
CCCOCCCOc1cccc(OCc2ccccc2C(=NOC)C(=O)NC)n1 [Compound 89] | − (− = 0-24% control of plant disease) |  | + (+ = 25-74% control of plant disease) | − (− = 0-24% control of plant disease)
CNC(=O)C(=NOC)c1cccc(F)c1COc1cccc(OCCCOC(C)C)n1 [Compound 79] |  | ++ (++ = 75-100 % control of plant disease) |  | 
